Experimental data: patent publication US20090216158A1, “ULTRASOUND AND TISSUE REPAIR” (priority 2008, published 2009)

Columns and labels:
MEFs = assay: Adhesion complex (focal adhesion) formation assay, vinculin/actin immunofluorescence; type: cell-based, mouse; conditions: 200 nM BIM; MEFs prespread on 50K
Procedure: (§1) For immunofluorescence, 13-mm diameter glass coverslips, placed into 6-well plates, were derivatized for 30 minutes with 1 mM sulpho-m-maleimidobenzoyl-N-hydrosuccinimide ester (Perbio). For spreading on mab13 monoclonal antibody, coverslips were pre-coated with 10 μg/ml goat anti-Rat IgG FC fragment (Jackson, Stratech Scientific). For biochemical assays, 6-well tissue culture-treated plastic plates (Corning BV) were coated directly with ligand. Coverslips or dishes were coated for 2 hours at room temperature with 10 μg/ml 50K, H/0, PLL or mab13 in Dulbecco's PBS containing calcium and magnesium (Lonza), and blocked with 10 mg/ml heat-denatured BSA for 30 minutes at room temperature (Humphries et al., 1986). Equivalent ligand-coating between glass and plastic was tested by ELISA using the anti-fibronectin mAb 333 (Bass et al., 2007a). To prevent de novo synthesis of ECM and other syndecan-4 ligands, cells were treated with 25 μg/ml cycloheximide (Sigma) for 2 hours prior to detachment (Couchman et al., 1983) and were then detached with 0.5 mg/ml trypsin. […] Images were compiled and analyzed using ImageJ software. The total area of adhesion complexes per cell was calculated by recording the area of fluorescence intensity above an empirically determined threshold, following rolling ball background subtraction. […]

Rac1 = assay: GTPase activation assay: Rac1 effector pull-down with quantitative Western blotting; type: cell-based, mouse; conditions: 200 nM BIM, 30 min before and throughout stimulation; MEFs prespread on 50K
Procedure: as §1

human β1 integrin = biological target: T1, human β1 integrin (Homo sapiens, UniProt P05556); assay: Flow cytometry of integrin activity with 12G10 antibody on K562 cells; type: cell-based; conditions: 1 mM Mn^2+ rather than 1 mM Ca^2+, 0.5 mM Mg^2+
T1 construct: endogenous in cells; host or cells: K562 human lymphocytes
Procedure: For analysis of integrin activity by flow cytometry, K562 suspension cells were stimulated with ultrasound for 20 minutes, followed by centrifugation and re-suspension in ice cold media. Cells were stained with primary antibody (12G10), diluted to 10 μg/ml in Dulbecco's PBS containing calcium and magnesium (Lonza), 0.02% (w/v) sodium azide on ice for 1 hour. The cells were washed with PBS, 1% (v/v) fetal bovine serum, followed by 10 μg/ml secondary antibody diluted in PBS, 10% (v/v) fetal bovine serum for 30 minutes. For manganese stimulation all antibodies and wash buffers were supplemented with 1 mM MnCl2. Cells were then fixed with 2% (w/v) paraformaldehyde, and analysed on a Dako Cyan flow cytometer, using an excitation wavelength of 488 nm. A 530/30 nm bandpass filter was used to detect the emissions.

Row | SMILES | effect on focal adhesion formation in response to H/0 (MEFs) | effect on ultrasound-induced Rac1 activation (Rac1) | staining of K562 lymphocytes with 12G10 (β1 integrin activation epitope) (human β1 integrin)
1 | CN(C)CCCn1cc(C2=C(c3c[nH]c4ccccc34)C(=O)NC2=O)c2ccccc21 [BIM, bisindolylmaleimide I] | blocked focal adhesion formation in response to H/0 | did not prevent ultrasound-induced Rac1 activation | 
2 | [Cl][Mn][Cl] [Mn^2+, MnCl2] |  |  | enhanced
